The text below walks through data of ChEMBL document CHEMBL5137005, “Development of Dual Inhibitors Targeting Epidermal Growth Factor Receptor in Cancer Therapy” (J Med Chem, 2022).

Assay [1] concerns the target T1, Epidermal growth factor receptor (Homo sapiens, UniProt P00533). The assay is described as follows: Inhibition of EGFR (unknown origin) by microplate reader.
Assay [2] concerns the target Tubulin. The assay is described as follows: Inhibition of tubulin polymerization (unknown origin). It counts as protein-complex assay, Homo sapiens.
Assay [3] concerns the target T1, Epidermal growth factor receptor. The assay can be described thus: Inhibition of EGFR (unknown origin).
Assay [4] deals with Nuclear factor NF-kappa-B complex (Homo sapiens, UniProt P19838+Q00653+Q04206). The assay can be described thus: Inhibition of NF-kappaB (unknown origin). In kind it is protein-complex assay.
Chain of Nuclear factor NF-kappa-B complex (P19838 1-433 limits assumed): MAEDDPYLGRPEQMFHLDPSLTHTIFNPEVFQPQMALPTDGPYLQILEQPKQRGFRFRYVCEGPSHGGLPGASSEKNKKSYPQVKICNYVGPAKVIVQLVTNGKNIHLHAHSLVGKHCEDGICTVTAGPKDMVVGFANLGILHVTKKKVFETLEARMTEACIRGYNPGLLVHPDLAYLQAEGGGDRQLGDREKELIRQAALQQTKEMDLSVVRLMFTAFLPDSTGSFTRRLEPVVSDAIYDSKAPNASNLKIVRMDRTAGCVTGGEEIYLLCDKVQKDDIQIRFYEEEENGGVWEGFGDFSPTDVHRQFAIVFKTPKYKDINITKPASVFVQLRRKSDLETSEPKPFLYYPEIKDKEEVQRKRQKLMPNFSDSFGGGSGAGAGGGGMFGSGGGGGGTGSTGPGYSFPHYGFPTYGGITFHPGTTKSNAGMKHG
Chain of Nuclear factor NF-kappa-B complex (Q00653 1-454 limits assumed): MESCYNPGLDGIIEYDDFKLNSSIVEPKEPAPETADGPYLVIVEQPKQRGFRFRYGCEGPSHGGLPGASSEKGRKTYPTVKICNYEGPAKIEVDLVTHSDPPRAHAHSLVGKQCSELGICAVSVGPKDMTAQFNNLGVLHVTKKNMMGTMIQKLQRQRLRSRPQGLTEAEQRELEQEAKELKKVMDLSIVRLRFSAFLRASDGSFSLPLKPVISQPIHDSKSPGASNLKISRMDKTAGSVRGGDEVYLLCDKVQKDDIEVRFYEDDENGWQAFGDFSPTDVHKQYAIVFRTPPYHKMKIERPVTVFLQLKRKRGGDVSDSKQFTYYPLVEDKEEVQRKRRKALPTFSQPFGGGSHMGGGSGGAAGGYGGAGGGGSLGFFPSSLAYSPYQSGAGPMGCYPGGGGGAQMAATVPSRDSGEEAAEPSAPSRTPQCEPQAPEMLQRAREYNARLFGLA
Chain of Nuclear factor NF-kappa-B complex (Q04206 whole entry): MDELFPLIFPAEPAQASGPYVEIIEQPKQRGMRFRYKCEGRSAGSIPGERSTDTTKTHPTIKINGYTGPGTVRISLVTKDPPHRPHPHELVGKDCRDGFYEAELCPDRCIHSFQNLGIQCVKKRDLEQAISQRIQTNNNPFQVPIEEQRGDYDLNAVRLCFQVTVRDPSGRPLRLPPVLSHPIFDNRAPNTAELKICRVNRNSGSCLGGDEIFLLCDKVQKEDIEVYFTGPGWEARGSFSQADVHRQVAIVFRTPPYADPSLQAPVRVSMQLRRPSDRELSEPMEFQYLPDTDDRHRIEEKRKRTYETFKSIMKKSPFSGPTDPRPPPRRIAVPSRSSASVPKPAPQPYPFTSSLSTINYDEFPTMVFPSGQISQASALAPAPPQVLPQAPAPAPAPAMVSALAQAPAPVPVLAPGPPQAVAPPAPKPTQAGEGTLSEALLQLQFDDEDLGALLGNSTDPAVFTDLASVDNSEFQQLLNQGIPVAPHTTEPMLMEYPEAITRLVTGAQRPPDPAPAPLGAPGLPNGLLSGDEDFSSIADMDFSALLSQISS
Assay [5] relates to A-431. The assay is described as follows: Antiproliferative activity against human A-431 cells overexpressing wildtype EGFR assessed as cell growth inhibition incubated for 24 hrs. In kind it is functional.
The next assay concerns NCI-H1975. The assay can be described thus: Antiproliferative activity against human H1975 cells overexpressing EGFR T790M/L858R assessed as cell growth inhibition incubated for 24 hrs. In kind it is functional.
Assay [6] concerns MCF7. The assay is described as follows: Antiproliferative activity against human MCF7 cells overexpressing HER2 assessed as cell growth inhibition incubated for 24 hrs. In kind it is functional.
In assay [7] the target is Receptor tyrosine-protein kinase erbB-2 (Homo sapiens, UniProt P04626). The assay is described as follows: Inhibition of HER2 (unknown origin).
Chain of Receptor tyrosine-protein kinase erbB-2 (P04626 whole entry): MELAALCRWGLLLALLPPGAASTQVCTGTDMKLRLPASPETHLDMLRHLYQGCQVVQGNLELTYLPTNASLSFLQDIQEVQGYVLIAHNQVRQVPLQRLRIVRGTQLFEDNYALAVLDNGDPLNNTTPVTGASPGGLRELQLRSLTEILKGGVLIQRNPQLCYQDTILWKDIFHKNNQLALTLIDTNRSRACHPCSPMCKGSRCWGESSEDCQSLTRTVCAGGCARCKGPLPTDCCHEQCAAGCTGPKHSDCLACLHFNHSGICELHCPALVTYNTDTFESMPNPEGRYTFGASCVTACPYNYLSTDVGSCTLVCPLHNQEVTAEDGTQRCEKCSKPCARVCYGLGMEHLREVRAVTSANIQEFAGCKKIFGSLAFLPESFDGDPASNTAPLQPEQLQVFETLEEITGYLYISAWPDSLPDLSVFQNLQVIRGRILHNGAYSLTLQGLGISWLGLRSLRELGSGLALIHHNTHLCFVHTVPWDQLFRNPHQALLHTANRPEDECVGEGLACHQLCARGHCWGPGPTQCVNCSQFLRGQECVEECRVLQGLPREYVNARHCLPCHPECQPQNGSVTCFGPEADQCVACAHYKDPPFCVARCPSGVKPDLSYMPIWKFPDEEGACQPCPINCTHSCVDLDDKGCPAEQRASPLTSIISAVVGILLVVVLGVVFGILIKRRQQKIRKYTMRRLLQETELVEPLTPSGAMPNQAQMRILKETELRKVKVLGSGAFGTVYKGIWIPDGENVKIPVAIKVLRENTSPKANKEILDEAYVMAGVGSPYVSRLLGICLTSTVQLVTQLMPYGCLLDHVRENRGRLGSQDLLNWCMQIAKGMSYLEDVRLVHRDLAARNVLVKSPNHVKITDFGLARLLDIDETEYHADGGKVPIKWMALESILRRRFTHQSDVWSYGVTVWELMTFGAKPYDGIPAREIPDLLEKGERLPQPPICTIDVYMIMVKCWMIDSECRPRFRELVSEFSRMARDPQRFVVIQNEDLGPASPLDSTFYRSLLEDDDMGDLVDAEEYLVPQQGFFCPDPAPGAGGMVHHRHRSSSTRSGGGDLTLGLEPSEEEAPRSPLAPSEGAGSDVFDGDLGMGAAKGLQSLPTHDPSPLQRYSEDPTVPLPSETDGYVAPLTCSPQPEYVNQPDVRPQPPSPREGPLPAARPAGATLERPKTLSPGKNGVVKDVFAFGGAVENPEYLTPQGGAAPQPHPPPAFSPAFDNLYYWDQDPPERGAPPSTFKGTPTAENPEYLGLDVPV
The next assay deals with Histone deacetylase. The assay can be described thus: Inhibition of HDAC in human HeLa cell nuclear extract using fluorogenic Boc-Lys(acetyl)-AMC as substrate preincubated for 5 mins followed by addition of substrate measured after 20 mins by microplate reader. It counts as cell-free.
Assay [8] concerns the target Fibroblast growth factor receptor 4 (Homo sapiens, UniProt P22455). The assay is described as follows: Inhibition of FGFR4 (unknown origin) using biotin as substrate incubated for 2 hrs by HTRF assay.
In assay [9] the target is T1, Epidermal growth factor receptor. The assay can be described thus: Inhibition of EGFR (unknown origin) using biotin as substrate incubated for 2 hrs by HTRF assay.
The target in assay [10] is Tubulin. The assay can be described thus: Inhibition of tubulin polymerization (unknown origin) by measuring absorbance. In kind it is protein-complex assay, Homo sapiens.
Another assay relates to A549. The assay is described as follows: Growth inhibition of human A549 cells. It counts as functional.
In assay [11] the test system is A-431. The assay can be described thus: Growth inhibition of human A-431 cells. It counts as functional.
Assay [12] relates to MCF7. The assay is described as follows: Growth inhibition of human MCF7 cells. In kind it is functional.
The target in assay [13] is T2, Histone deacetylase 1 (Homo sapiens, UniProt Q13547). The assay is described as follows: Inhibition of HDAC1 (unknown origin).
T2 sequence (Q13547 whole entry): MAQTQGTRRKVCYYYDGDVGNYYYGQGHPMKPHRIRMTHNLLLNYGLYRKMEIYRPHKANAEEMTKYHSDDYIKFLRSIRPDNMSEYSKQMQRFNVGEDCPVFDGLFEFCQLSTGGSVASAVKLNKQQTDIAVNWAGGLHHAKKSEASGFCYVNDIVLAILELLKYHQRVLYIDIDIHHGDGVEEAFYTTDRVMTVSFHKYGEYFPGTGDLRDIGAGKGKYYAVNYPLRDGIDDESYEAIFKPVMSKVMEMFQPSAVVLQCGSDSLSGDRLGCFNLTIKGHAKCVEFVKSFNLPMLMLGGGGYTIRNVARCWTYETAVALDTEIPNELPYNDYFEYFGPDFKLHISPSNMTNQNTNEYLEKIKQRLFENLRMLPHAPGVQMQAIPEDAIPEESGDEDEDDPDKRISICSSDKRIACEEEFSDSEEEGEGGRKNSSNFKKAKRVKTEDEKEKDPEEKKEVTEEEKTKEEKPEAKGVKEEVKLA
For assay [14], the target named is T3, Protein deacetylase HDAC6 (Homo sapiens, UniProt Q9UBN7).
T3 sequence (Q9UBN7 whole entry): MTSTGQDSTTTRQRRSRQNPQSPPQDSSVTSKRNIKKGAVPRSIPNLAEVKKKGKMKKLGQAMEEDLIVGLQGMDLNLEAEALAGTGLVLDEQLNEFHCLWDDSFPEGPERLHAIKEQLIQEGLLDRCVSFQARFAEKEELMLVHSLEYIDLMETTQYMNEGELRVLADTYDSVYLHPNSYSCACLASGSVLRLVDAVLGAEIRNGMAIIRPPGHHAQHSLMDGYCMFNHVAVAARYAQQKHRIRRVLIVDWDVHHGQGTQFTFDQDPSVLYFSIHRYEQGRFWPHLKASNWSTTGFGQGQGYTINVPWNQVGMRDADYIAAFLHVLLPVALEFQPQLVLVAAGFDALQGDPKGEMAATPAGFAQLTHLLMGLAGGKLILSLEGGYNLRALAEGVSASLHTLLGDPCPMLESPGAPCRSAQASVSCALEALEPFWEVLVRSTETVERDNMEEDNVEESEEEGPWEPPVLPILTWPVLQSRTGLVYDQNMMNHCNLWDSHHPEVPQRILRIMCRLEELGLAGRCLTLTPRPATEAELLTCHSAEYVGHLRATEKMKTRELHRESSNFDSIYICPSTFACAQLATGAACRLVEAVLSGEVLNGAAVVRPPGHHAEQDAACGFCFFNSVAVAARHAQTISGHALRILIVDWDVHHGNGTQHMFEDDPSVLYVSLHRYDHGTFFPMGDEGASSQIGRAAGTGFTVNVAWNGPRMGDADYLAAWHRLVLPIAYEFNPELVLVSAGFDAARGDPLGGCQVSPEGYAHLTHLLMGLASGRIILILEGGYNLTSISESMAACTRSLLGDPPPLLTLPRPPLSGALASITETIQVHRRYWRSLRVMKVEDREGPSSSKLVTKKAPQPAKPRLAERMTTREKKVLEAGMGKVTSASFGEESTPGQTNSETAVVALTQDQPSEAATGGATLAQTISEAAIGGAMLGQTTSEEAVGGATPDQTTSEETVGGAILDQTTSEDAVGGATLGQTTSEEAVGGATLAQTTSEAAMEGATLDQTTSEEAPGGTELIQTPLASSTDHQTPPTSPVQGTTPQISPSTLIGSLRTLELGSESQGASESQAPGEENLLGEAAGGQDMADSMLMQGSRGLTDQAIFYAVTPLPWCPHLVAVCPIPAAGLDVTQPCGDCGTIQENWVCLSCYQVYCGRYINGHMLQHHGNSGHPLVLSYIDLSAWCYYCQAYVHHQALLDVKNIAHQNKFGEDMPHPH
The assay is described as follows: Inhibition of HDAC6 (unknown origin).

The target of assay [15] is T2, Histone deacetylase 1. The assay can be described thus: Inhibition of human recombinant HDAC1 expressed in insect High5 cells using baculovirus expression system using Ac-Lys-Tyr-Lys (epsilon-acetyl)-AMC as substrate incubated for 24 hrs by multilabel plate reader method. Details: species or system BTI-TN-5B1-4.
A further assay concerns the target Histone deacetylase 3 (Homo sapiens, UniProt O15379). The assay is described as follows: Inhibition of human recombinant HDAC3 expressed in insect High5 cells using baculovirus expression system using Ac-Lys-Tyr-Lys (epsilon-acetyl)-AMC as substrate incubated for 24 hrs by multilabel plate reader method. The arrangement: species or system BTI-TN-5B1-4.
The target of assay [16] is T3, Protein deacetylase HDAC6. The assay can be described thus: Inhibition of human recombinant HDAC6 expressed in insect High5 cells using baculovirus expression system using Boc-Lys (epsilon-acetyl)-AMC as substrate incubated for 3 hrs by multilabel plate reader method. The arrangement: species or system BTI-TN-5B1-4.
Assay [17] deals with T1, Epidermal growth factor receptor. The assay is described as follows: Inhibition of EGFR (unknown origin) using synthetic biotinylated peptide as substrate […] by microplate reader method relative to control.
In another assay the test system is MDA-MB-231. The assay is described as follows: Growth inhibition of human MDA-MB-231 cells incubated for 72 hrs by MTT assay. It counts as functional. In general terms: Tetrazolium assays rely on reduction of a dye to a coloured formazan, in cell work by metabolically active cells.
The next assay relates to MDA-MB-468. The assay is described as follows: Growth inhibition of human MDA-MB-468 cells incubated for 72 hrs by MTT assay. It counts as functional.
The test system of a further assay is HT-29. The assay is described as follows: Growth inhibition of human HT-29 cells incubated for 72 hrs by MTT assay. In kind it is functional.
For the next assay, the system named is KG-1. The assay can be described thus: Growth inhibition of human KG-1 cells incubated for 72 hrs by MTT assay. In kind it is functional.

T1 sequence (P00533 whole entry): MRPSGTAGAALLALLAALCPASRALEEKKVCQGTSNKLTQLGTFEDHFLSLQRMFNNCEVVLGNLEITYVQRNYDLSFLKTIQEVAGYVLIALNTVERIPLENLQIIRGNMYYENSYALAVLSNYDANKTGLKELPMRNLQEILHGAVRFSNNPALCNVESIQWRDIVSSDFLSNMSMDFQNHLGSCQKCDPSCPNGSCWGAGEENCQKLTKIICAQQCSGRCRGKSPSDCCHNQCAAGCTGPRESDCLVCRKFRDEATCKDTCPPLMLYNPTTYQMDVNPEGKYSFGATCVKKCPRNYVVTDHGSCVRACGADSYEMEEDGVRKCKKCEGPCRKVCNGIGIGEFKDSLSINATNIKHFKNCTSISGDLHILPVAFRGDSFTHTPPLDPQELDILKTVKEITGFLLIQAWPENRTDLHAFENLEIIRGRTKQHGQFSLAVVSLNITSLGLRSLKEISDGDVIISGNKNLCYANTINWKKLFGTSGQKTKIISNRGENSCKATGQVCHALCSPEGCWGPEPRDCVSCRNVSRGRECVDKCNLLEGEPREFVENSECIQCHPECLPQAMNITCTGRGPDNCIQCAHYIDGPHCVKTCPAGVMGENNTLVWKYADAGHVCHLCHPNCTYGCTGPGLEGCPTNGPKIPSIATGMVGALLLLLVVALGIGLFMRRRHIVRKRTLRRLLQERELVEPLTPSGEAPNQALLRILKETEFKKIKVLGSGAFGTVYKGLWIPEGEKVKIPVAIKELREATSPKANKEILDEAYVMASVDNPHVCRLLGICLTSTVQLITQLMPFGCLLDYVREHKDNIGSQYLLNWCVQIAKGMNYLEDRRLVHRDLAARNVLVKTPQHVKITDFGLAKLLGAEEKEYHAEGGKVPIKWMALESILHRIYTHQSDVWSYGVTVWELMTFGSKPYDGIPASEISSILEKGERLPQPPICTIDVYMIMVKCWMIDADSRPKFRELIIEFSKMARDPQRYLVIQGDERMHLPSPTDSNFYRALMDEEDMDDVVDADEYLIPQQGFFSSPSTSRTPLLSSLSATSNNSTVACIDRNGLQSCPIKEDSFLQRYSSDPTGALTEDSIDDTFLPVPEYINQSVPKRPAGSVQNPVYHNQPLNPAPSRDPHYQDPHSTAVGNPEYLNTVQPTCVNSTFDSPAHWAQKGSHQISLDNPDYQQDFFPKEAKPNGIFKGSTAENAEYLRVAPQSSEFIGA
Chain of Histone deacetylase 3 (O15379 whole entry): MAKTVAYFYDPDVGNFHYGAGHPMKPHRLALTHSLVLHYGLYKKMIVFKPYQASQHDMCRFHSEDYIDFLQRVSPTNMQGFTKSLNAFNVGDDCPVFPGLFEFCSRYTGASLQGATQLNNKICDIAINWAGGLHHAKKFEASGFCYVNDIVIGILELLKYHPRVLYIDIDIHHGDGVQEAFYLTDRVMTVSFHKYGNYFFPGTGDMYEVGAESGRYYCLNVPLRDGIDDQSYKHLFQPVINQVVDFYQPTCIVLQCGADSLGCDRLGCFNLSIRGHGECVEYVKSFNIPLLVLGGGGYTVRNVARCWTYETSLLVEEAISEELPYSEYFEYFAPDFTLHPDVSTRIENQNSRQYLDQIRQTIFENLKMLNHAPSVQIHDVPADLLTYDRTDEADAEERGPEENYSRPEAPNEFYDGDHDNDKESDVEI

Turning to `O=C(Nc1ccccc1C(=O)N/N=C/c1ccc(O)cc1O)c1ccco1`, the IC50 (as a rule, the concentration that inhibits the measured activity by half) was determined as 85.4 nM in [1] and 87.6 nM at Tubulin [2].
For the compound `NS(=O)(=O)c1ccc(NC(=O)c2ccccc2NC(=O)c2ccco2)cc1`, the IC50 in assay [1] is 31.2 nM; at Tubulin [2], 108 nM.
With `COc1ccc(/C=C\C(=O)c2ccc(Br)c3cc(-c4ccc(F)cc4)oc23)cc1`, the concentration for half-maximal inhibition (IC50) in assay [3] was found to be 90 nM.
`FC(F)(F)c1csc(NC(=S)Nc2ccc3ncnc(Nc4cccc(Cl)c4)c3c2)n1` came in with an IC50 in [4] of 600 nM.
As for `CC(C)(O)CC(=O)NCCc1ccc2ncnc(Nc3ccc(Oc4cccc(C(F)(F)F)c4)c(Cl)c3)c2c1`, the values for the GI50 in the assay with A-431 [5], in the assay on NCI-H1975 and in the assay with MCF7 [6] were 41 nM, 127 nM and 94 nM, respectively.
As to `Cc1c(NC(=O)OC[C@@H]2COCCN2)cn2ncnc(Nc3ccc4c(cnn4Cc4cccc(F)c4)c3)c12` [AC-480], it took 30 nM to reach half-maximal inhibition in assay [7] (IC50).
`S=C(NCc1ccccc1)Nc1ccc2ncnc(Nc3cccc(Br)c3)c2c1` had an IC50 in [4] of 4100 nM.
Regarding `Cn1cc(-c2ccnc(Nc3ccc(C(=O)NCCCCCCC(=O)NO)cc3)n2)c2ccccc21`, the IC50 on Histone deacetylase is recorded as 105 nM.
As to `COc1cc2ncnc(Oc3ccc(NC(=O)Nc4cccc(C(F)(F)F)c4)c4ccccc34)c2cc1OC`, the figures for the IC50 in assay [8] and in assay [9] were 86.2 nM and 83.9 nM, respectively.
As to `CCN1CCN(Cc2ccc(-c3cc4c(N[C@H](C)c5ccccc5)ncnc4[nH]3)cc2)CC1` [AEE-788], the IC50 in [7] worked out at 6 nM.
`COc1ccc(N(C)c2nc(N)nc3c(Cc4ccccc4)c[nH]c23)cc1` had an IC50 against Tubulin [2] of more than 20000 nM.
In the case of `CCOCCSc1nc(-c2ccccc2Cl)nn1CCOCC`, the IC50 in assay [1] was 86.7 nM; against Tubulin [10], 10700 nM.
`O=C(Nc1ccc2ncnc(Nc3cccc(Br)c3)c2c1)c1ccc(C(F)(F)F)cc1O`: the 50% growth inhibitory concentration (GI50) (commonly the concentration that inhibits growth by half) with A549 came out at 1640 nM; with A-431 [11], 670 nM; in the assay on MCF7 [12], 490 nM.
Take `O=C(CCCCn1cc(-c2ccc3ncnc(Nc4ccccc4F)c3c2)nn1)NO`: the figures for the half-maximal inhibitory concentration (IC50) (in assay [3]; against Histone deacetylase 1 [13]; in assay [14]) were 10.3 nM, 1.1 nM and 4.3 nM, respectively.
Regarding `COc1cc2ncnc(Nc3cccc(/C=C/C(=O)NO)c3)c2cc1OCCCN1CCOCC1`, the IC50 at Histone deacetylase 1 [15] was 160 nM; at Histone deacetylase 3, 180 nM; in [16], 560 nM. In addition, the inhibition (usually the relative decrease from the control value, in per cent) in assay [17] is 9.7%.
`O=C(/C=C\c1ccc(OC(F)(F)F)cc1)c1ccc(Br)c2cc(-c3ccc(F)cc3)oc12` yielded an IC50 in assay [3] of 120 nM.
Regarding `COc1cc(NC(=O)CCCCCCC(=O)NO)ccc1Nc1nccc(-c2cn(C)c3ccccc23)n1`, the GI50 came to 600 nM with MDA-MB-231, 230 nM in the assay with MDA-MB-468, 790 nM in the assay with HT-29 and 240 nM with KG-1.
`COc1cc(Nc2ncnc3cc(-c4ccc(C)cc4)sc23)cc(OC)c1OC` returned an IC50 on Tubulin [2] of 710 nM.
As for `Fc1cc(F)cc(NC(=S)Nc2ccc3ncnc(Nc4cccc(Cl)c4)c3c2)c1`, the IC50 in assay [4] was determined as 300 nM.
